Results published in patent publication US8933046B2 (priority 2009, dated 2015).

Experiments:
[1] = tested on: influenza A/WSN/33 (H1N1) virus; assay type: cell-based
[2] = tested on: influenza A/Hamburg/04/2009 (H1N1) virus; assay type: cell-based
[3] = tested on: A549 cells; experiment: Influence of TG003 on cell viability (WST-1 assay); assay type: cell-based, human; conditions: TG003 50 μM
Procedure: FIG. 18|Influence of the chemical CLK1 inhibitor TG003 on cell viability. A549 cells were incubated with TG003 (50 μM, dissolved in DMSO), with DMSO or left untreated. Cell viability was evaluated at the indicated time points using the WST-1 assay, according to the manufacturer's instructions. Shown are the mean values from three replicates. Error bars indicate the standard deviation.
Determination of host cell viability upon siRNA transfection was performed using cell proliferation assay WST-1 (Roche, Mannheim, Germany). WST-1 reagent was added to the cells 48 h after siRNA transfection and incubated at 37° C. for 1.5 h. Absorbance was measured at 460 nm and at the reference wavelength 590 nm. Non-targeting siRNA Allstars and siPLK1 were used as a […].

[4] = tested on: viral M1 and M2 protein (influenza A/WSN/33); assay type: cell-based, influenza A virus
[5] = tested on: viral M1 and M2 mRNA (influenza A/WSN/33); assay type: cell-based, influenza A virus
[6] = tested on: vesicular stomatitis virus (VSV); assay type: cell-based; conditions: TG003 50 μM, A549 pretreated 24 h, VSV MOI 0.01, 24 h p.i.

Compound | normalised inhibition of infectious virus particles, siRNA1 [1] | normalised inhibition of infectious virus particles, siRNA2 [1] | normalised inhibition of infectious virus particles, siRNA3 [1] | normalised inhibition of infectious virus particles, siRNA4 [1] | normalised inhibition of infectious virus particles, siRNA1 [2] | normalised inhibition of infectious virus particles, siRNA2 [2] | normalised inhibition of infectious virus particles, siRNA3 [2] | normalised inhibition of infectious virus particles, siRNA4 [2] | toxic effects (cell viability, WST-1) [3] | M1 protein levels [4] | M2 protein levels [4] | levels of spliced M2 viral RNA [5] | unspliced M1 and NS1/NS2 viral RNA [5] | replication of vesicular stomatitis virus (VSV) [6]
WNT3A | 0.36 | −0.16 | 0.64 | 0.81 | 0.53 | 0.4 | 0.91 | 1.1 |  |  |  |  |  | 
CCN1/C(=C/C(C)=O)Sc2ccc(OC)cc21 [TG003] |  |  |  |  |  |  |  |  | without exerting detectable toxic effects | remained relatively constant | drastically reduced | reduced | unaffected | only slightly reduced
